Test results: ChEMBL document CHEMBL5052856, “Inhibitors of apol1 and methods of using same” (2021)
pIC50: −log10 of the molar value.

Molecular target: Apolipoprotein L1 (Homo sapiens, UniProt O14791)
Assay: Inhibition of APOL1 G1 variant in human HEK293-T-REx cells measured by Thallium assay
Format: cell-based

Compound | pIC50
NC(=O)CCNC1CC(c2c(-c3ccc(F)cc3)[nH]c3c(F)cc(F)cc23)C1 (stereo not drawn) | < 6.00
O=C(NCCn1cncn1)[C@H]1C[C@@H](c2c(-c3ccc(F)cc3)[nH]c3c(F)cc(F)cc32)C1 | < 6.00
C[C@@H](O)CNC(=O)[C@H]1C[C@@H](c2c(-c3ccc(F)cc3)[nH]c3c(F)cc(F)cc32)C1 | < 6.00
NC(=O)C(CO)NC(=O)[C@H]1C[C@@H](c2c(-c3ccc(F)cc3)[nH]c3c(F)cc(F)cc32)C1 (stereo partly drawn) | < 6.00
C[C@@H](CO)NC(=O)N[C@H]1C[C@H](c2c(-c3ccc(F)cc3)[nH]c3c(F)cc(F)cc32)C1 | 9.60
O=C(N[C@H]1C[C@H](O)C1)[C@H]1C[C@@H](c2c(-c3ccc(F)cc3)[nH]c3c(F)cc(F)cc32)C1 | < 6.00
C[C@H](CO)NC(=O)CNC(=O)[C@H]1C[C@H](c2c(-c3ccc(F)cc3)[nH]c3c(F)cc(F)cc32)C1 | < 6.00
O=C(NCC(O)CO)[C@H]1C[C@@H](c2c(-c3ccc(F)cc3)[nH]c3c(F)cc(F)cc32)C1 (stereo partly drawn) | < 6.00
O=C1NCCC1NC(=O)[C@H]1C[C@@H](c2c(-c3ccc(F)cc3)[nH]c3c(F)cc(F)cc32)C1 (stereo partly drawn) | < 6.00
Cn1cnc(CNC(=O)C2(C)CC(c3c(-c4ccc(F)cc4)[nH]c4c(F)cc(F)cc34)C2)c1 (stereo not drawn) | 9.60
O=C(CNC(=O)[C@H]1C[C@H](c2c(-c3ccc(F)cc3)[nH]c3c(F)cc(F)cc32)C1)NCCO | < 6.00
O=C(NC(CO)CO)[C@H]1C[C@@H](c2c(-c3ccc(F)cc3)[nH]c3c(F)cc(F)cc32)C1 | < 6.00
Cc1ccn(CCNC(=O)[C@H]2C[C@@H](c3c(-c4ccc(F)cc4)[nH]c4c(F)cc(F)cc43)C2)n1 | 9.60
O=C1NC[C@@H](O)[C@@H]1NC(=O)[C@H]1C[C@H](c2c(-c3ccc(F)cc3)[nH]c3c(F)cc(F)cc32)C1 | > 6.60
NC(=O)CNC(=O)C1CC(c2c(-c3ccc(F)cc3)[nH]c3c(F)cc(C(F)(F)F)cc23)C1 (stereo not drawn) | > 6.60
CC1(C(=O)NC2(CO)CC2)CC(c2c(-c3ccc(F)cc3)[nH]c3c(F)cc(F)cc23)C1 (stereo not drawn) | > 6.60
O=C(N[C@@H]1CCOC1)[C@H]1C[C@@H](c2c(-c3ccc(F)cc3)[nH]c3c(F)cc(F)cc32)C1 | < 6.00
O=C(NCC(F)(F)F)[C@H]1C[C@@H](c2c(-c3ccc(F)cc3)[nH]c3c(F)cc(F)cc32)C1 | 9.60
C[C@H](CO)NC(=O)[C@H]1C[C@@H](c2c(-c3ccc(F)cc3)[nH]c3c(F)cc(F)cc32)C1 | < 6.00
CC(CO)NC(=O)[C@H]1C[C@@H](c2c(-c3ccc(F)cc3)[nH]c3c(F)cc(F)cc32)C1 (stereo partly drawn) | < 6.00
O=C(NCCO)C1CC(Cc2c(-c3ccc(F)cc3)[nH]c3c(F)cc(F)cc23)C1 (stereo not drawn) | 9.60
N#CC(CO)NC(=O)C1CC(Cc2c(-c3ccc(F)cc3)[nH]c3c(F)cc(F)cc23)C1 (stereo not drawn) | < 6.00
C[C@H](O)[C@H](CO)NC(=O)[C@H]1C[C@@H](c2c(-c3ccc(F)cc3)[nH]c3c(F)cc(F)cc32)C1 | < 6.00
O=C(NCCO)[C@H]1C[C@@H](c2c(-c3ccc(F)cc3)[nH]c3c(F)cc(F)cc32)C1 | 9.60
O=C(NC1(CO)CC1)C1(F)CC(c2c(-c3ccc(F)cc3)[nH]c3c(F)cc(F)cc23)C1 (stereo not drawn) | > 6.60

Compound | pIC50
C[C@@H](O)CNC(=O)N[C@H]1C[C@H](c2c(-c3ccc(F)cc3)[nH]c3c(F)cc(F)cc32)C1 | < 6.00
O=C(NCC1CC(F)(F)C1)[C@H]1C[C@@H](c2c(-c3ccc(F)cc3)[nH]c3c(F)cc(F)cc32)C1 | < 6.00
O=C(NC(CO)CO)N[C@H]1C[C@H](c2c(-c3ccc(F)cc3)[nH]c3c(F)cc(F)cc32)C1 | < 6.00
O=C1CN(C(=O)[C@H]2C[C@@H](c3c(-c4ccc(F)cc4)[nH]c4c(F)cc(F)cc43)C2)CCN1 | < 6.00
O=C(NC1(CO)CC1)[C@H]1C[C@@H](c2c(-c3ccc(F)cc3)[nH]c3c(F)cc(F)cc32)C1 | < 6.00
C[C@H](O)CNC(=O)C1CC(Cc2c(-c3ccc(F)cc3)[nH]c3c(F)cc(F)cc23)C1 (stereo partly drawn) | < 6.00
CC1(C(=O)NCCO)CC(c2c(-c3ccc(F)cc3)[nH]c3c(F)cc(F)cc23)C1 (stereo not drawn) | 9.60
CC(O)[C@H](CO)NC(=O)[C@H]1C[C@@H](c2c(-c3ccc(F)cc3)[nH]c3c(F)cc(F)cc32)C1 (stereo partly drawn) | < 6.00
C[C@@H](CO)NC(=O)[C@H]1C[C@@H](c2c(-c3ccc(F)cc3)[nH]c3c(F)cc(F)cc32)C1 | 9.60
O=C1NCCCC1NC(=O)[C@H]1C[C@@H](c2c(-c3ccc(F)cc3)[nH]c3c(F)cc(F)cc32)C1 (stereo partly drawn) | < 6.00
O=C1NC[C@@H](O)[C@@H]1NC(=O)[C@H]1C[C@@H](c2c(-c3ccc(F)cc3)[nH]c3c(F)cc(F)cc32)C1 | < 6.00
Cn1nccc1CNC(=O)[C@H]1C[C@@H](c2c(-c3ccc(F)cc3)[nH]c3c(F)cc(F)cc32)C1 | < 6.00
O=C1NCC[C@H]1NC(=O)[C@H]1C[C@@H](c2c(-c3ccc(F)cc3)[nH]c3c(F)cc(F)cc32)C1 | < 6.00
CC[C@@H](CO)NC(=O)[C@H]1C[C@@H](c2c(-c3ccc(F)cc3)[nH]c3c(F)cc(F)cc32)C1 | < 6.00
O=C(NC(CO)(CO)CO)[C@H]1C[C@H](c2c(-c3ccc(F)cc3)[nH]c3c(F)cc(F)cc32)C1 | > 6.60
O=C(N[C@H]1CCOC1)[C@H]1C[C@@H](c2c(-c3ccc(F)cc3)[nH]c3c(F)cc(F)cc32)C1 | < 6.00
CNC(=O)CN[C@H]1C[C@H](c2c(-c3ccc(F)cc3)[nH]c3c(F)cc(F)cc32)C1 | 9.60
O=C(CNC(=O)[C@H]1C[C@H](c2c(-c3ccc(F)cc3)[nH]c3c(F)cc(F)cc32)C1)NC[C@@H](O)C(F)(F)F | < 6.00
CC(C)NC(=O)CN[C@H]1C[C@H](c2c(-c3ccc(F)cc3)[nH]c3c(F)cc(F)cc32)C1 | < 6.00
O=C([C@H]1C[C@@H](c2c(-c3ccc(F)cc3)[nH]c3c(F)cc(F)cc32)C1)N1C[C@@H](O)[C@H](O)C1 | < 6.00
O=C(NC(CO)(CO)CO)[C@H]1C[C@@H](c2c(-c3ccc(F)cc3)[nH]c3c(F)cc(F)cc32)C1 | 9.60
O=C(NC1CC(O)C1)[C@H]1C[C@@H](c2c(-c3ccc(F)cc3)[nH]c3c(F)cc(F)cc32)C1 (stereo partly drawn) | < 6.00
O=C(NC1CCNC1=O)N[C@H]1C[C@H](c2c(-c3ccc(F)cc3)[nH]c3c(F)cc(F)cc32)C1 (stereo partly drawn) | < 6.00
Cn1nccc1NC(=O)[C@H]1C[C@@H](c2c(-c3ccc(F)cc3)[nH]c3c(F)cc(F)cc32)C1 | < 6.00
O=C(NC1(CO)CCC1)[C@H]1C[C@@H](c2c(-c3ccc(F)cc3)[nH]c3c(F)cc(F)cc32)C1 | 9.60

Compound | pIC50
O=C(N[C@@H](CO)C(F)F)[C@H]1C[C@H](c2c(-c3ccc(F)cc3)[nH]c3c(F)cc(F)cc32)C1 | > 6.60
O=C1CCC(NC(=O)[C@H]2C[C@@H](c3c(-c4ccc(F)cc4)[nH]c4c(F)cc(F)cc43)C2)C(=O)N1 (stereo partly drawn) | < 6.00
NC(=O)CNC1CC(c2c(-c3ccc(F)cc3)[nH]c3c(F)cc(F)cc23)C1 (stereo not drawn) | < 6.00
CC(C)C(CO)NC(=O)[C@H]1C[C@@H](c2c(-c3ccc(F)cc3)[nH]c3c(F)cc(F)cc32)C1 (stereo partly drawn) | < 6.00
O=C(NCCO)C1CC(c2c(-c3ccc(F)cc3)[nH]c3c(F)cc(C(F)(F)F)cc23)C1 (stereo not drawn) | 9.60
Cn1cnc(CNC(=O)C2(F)CC(c3c(-c4ccc(F)cc4)[nH]c4c(F)cc(F)cc34)C2)c1 (stereo not drawn) | > 6.60
CC(CO)(CO)NC(=O)[C@H]1C[C@@H](c2c(-c3ccc(F)cc3)[nH]c3c(F)cc(F)cc32)C1 | 9.60
NC(=O)CN[C@H]1C[C@H](c2c(-c3ccc(F)cc3)[nH]c3c(F)cc(F)cc32)C1 | < 6.00
COCCNC(=O)[C@H]1C[C@@H](c2c(-c3ccc(F)cc3)[nH]c3c(F)cc(F)cc32)C1 | < 6.00
O=C(CN[C@H]1C[C@H](c2c(-c3ccc(F)cc3)[nH]c3c(F)cc(F)cc32)C1)NC1CC1 | < 6.00
Cn1cnc(CNC(=O)[C@H]2C[C@@H](c3c(-c4ccc(F)cc4)[nH]c4c(F)cc(F)cc43)C2)c1 | < 6.00
O=C(NCC(F)F)[C@H]1C[C@@H](c2c(-c3ccc(F)cc3)[nH]c3c(F)cc(F)cc32)C1 | 9.60
O=C(NCCn1cccc1)[C@H]1C[C@@H](c2c(-c3ccc(F)cc3)[nH]c3c(F)cc(F)cc32)C1 | < 6.00
CC(C)CC(NC(=O)[C@H]1C[C@@H](c2c(-c3ccc(F)cc3)[nH]c3c(F)cc(F)cc32)C1)C(N)=O (stereo partly drawn) | < 6.00
NC(=O)CNC(=O)[C@H]1C[C@@H](c2c(-c3ccc(F)cc3)[nH]c3c(F)cc(F)cc32)C1 | < 6.00
CC(C)(CO)NC(=O)[C@H]1C[C@@H](c2c(-c3ccc(F)cc3)[nH]c3c(F)cc(F)cc32)C1 | 9.60
O=C(NCC(O)C(F)F)C1CC(Cc2c(-c3ccc(F)cc3)[nH]c3c(F)cc(F)cc23)C1 (stereo not drawn) | < 6.00
O=C(NCC1COC1)[C@H]1C[C@@H](c2c(-c3ccc(F)cc3)[nH]c3c(F)cc(F)cc32)C1 | < 6.00
CON(C)C(=O)CN[C@H]1C[C@H](c2c(-c3ccc(F)cc3)[nH]c3c(F)cc(F)cc32)C1 | < 6.00
O=C(N[C@@H](CO)C(F)F)[C@H]1C[C@@H](c2c(-c3ccc(F)cc3)[nH]c3c(F)cc(F)cc32)C1 | 9.60
O=C(CNC(=O)[C@H]1C[C@H](c2c(-c3ccc(F)cc3)[nH]c3c(F)cc(F)cc32)C1)NC[C@H](O)C(F)(F)F | < 6.00
CC1(C(=O)N[C@H]2CCNC2=O)CC(c2c(-c3ccc(F)cc3)[nH]c3c(F)cc(F)cc23)C1 (stereo partly drawn) | 9.60
CC(C)C[C@H](CO)NC(=O)C1CC(Cc2c(-c3ccc(F)cc3)[nH]c3c(F)cc(F)cc23)C1 (stereo partly drawn) | < 6.00
